Assays:
[1] = Draize-Ocular Irritation assessment; format: in vivo, Dutch-belted rabbits; details: topical I-2 solution during the PK studies
[2] = Physical and chemical stability of I-2 solutions at room temperature; format: physicochemical; details: formulation buffered in 20 mM Tris (pH 8), F127
Method: Solutions of I-2 were formulated with F127 or Tween 80, and under a range of pH values. Briefly, I-2 was first completely solubilized using an acidic solution (0.1 N HCl) at a high concentration of ˜5% (w/v). The final formulation was diluted to a solution consisting of 0.5% (w/v) I-2 into buffered solution containing F127 or Tween 80 as described in Table 5. Following dilution, the pH of the formulations was measured using pH indicator strips (PEHANON) and confirmed to be within expected range (±0.5 units of target pH).
Physical and chemical stability of the solutions at room temperature (20-25° C.) were assessed after 7-10 days (tfinal). Physical instability in a solution can manifest as the precipitation and sedimentation of the drug of interest and excipients over time. To assess physical stability, the formulations at tfinal were first filtered through a 300 kDa modified polyethersulfone filter membrane (Nanosep) to remove any precipitate in the solution. The concentration of I-2 in the filtrates was then measured and compared to that at t=0. The purity of I-2 in the unfiltered solution was also evaluated at tfinal, to further confirm chemical stability. This parameter is defined by the area under the signal peak that is attributed to compound I-2 as a percentage of all peaks reported by in the sample by HPLC (% peak area).

[3] = Mobility of nanoparticles in human cervicovaginal mucus (dark field microscopy); details: low pH of CVM
Method: In order to determine whether the generated nanoparticles have reduced interactions with mucins and are therefore able to move within mucus without becoming trapped, particles were incubated with human cervicovaginal mucus (CVM) and observed via dark field microscopy. In a typical experiment, 51 μL of the nanoparticle suspension was added to 20 μl of CVM. Observations were made in a minimum of three distinct and randomly selected areas of the CVM sample. Control particles with known behavior were used to qualify the CVM sample as appropriate for the assay.

[4] = Milling with Pluronic F127 to mucus penetrating particles, particle size by dynamic light scattering; format: physicochemical; details: formulated as MPP, milled with Pluronic F127, DPBS buffered
Description: Compounds of the present invention synthesized in accordance with the preceding Examples were formulated as mucus penetrating particles (MPP). Specifically, compounds I-2, compound I-5, and compound I-6 were each milled in the presence of Pluronic F127 (F127) to determine whether F127 1) aids particle size reduction to several hundreds of nanometers and 2) physically (non-covalently) coats the surface of generated nanoparticles with a mucoinert coating that would minimize particle interactions with mucus constituents and prevent mucus adhesion.
A milling procedure was employed in which an aqueous dispersion containing coarse drug particles and Pluronic F127 (F127) was milled with grinding medium until particle size was reduced below 400 nm as measured by dynamic light scattering. Table 4 lists the size of particles and polydispersity index (a measure of the width of the particle size distribution) generated using this technique. In this example suspensions were buffered using DPBS (Dulbecco's Phosphate-Buffered Saline) which yields a suspension that is both isotonic and has a physiologically relevant pH.

Cc1cc(C(=O)Nc2cc(Oc3ccc4nc(NC(=O)CN5CC[C@H](N(C)C)C5)cn4n3)ccc2C)n(C)n1 [Compound I-2]
Draize-Ocular Irritation [1]: no irritation was seen
physical stability of the solution [2]: major physical instability (i.e., precipitation)
solubility in CVM [3]: soluble in the low pH of CVM

Cc1ccc(Oc2ccc3nc(NC(=O)CC4COC4)cn3n2)cc1NC(=O)c1cccc(F)c1 [Compound I-6]
Particle Size ([4]; dynamic light scattering): 245 nm

Cc1cc(C(=O)Nc2cc(Oc3ccc4nc(NC(=O)NC5COC5)cn4n3)ccc2C)n(C)n1 [Compound I-5]
Polydispersity Index (PDI) [4]: 0.160

— patent publication US10954244B2, “Compounds and uses thereof” (Kala Pharmaceuticals, Inc., priority 2013, dated 2021)
